Results as given in ChEMBL document CHEMBL5608206, “Exploring monocyclic core: Discovery of pyrrol-2-one derivatives as a new series of potent MCHR1 antagonists with in vivo efficacy” (Eur J Med Chem, 2024).

Assays:
[1] = in vitro; settings: human, liver microsomes
[2] = in vitro; settings: rat, liver microsomes
[3] = in vitro; settings: mouse, liver microsomes
[4] = physchem

remaining at 10 min, 3 µM [1]: 87%
remaining at 10 min, 3 µM [2]: 71%
remaining at 10 min, 3 µM [3]: 74%
logP [4]: 3.3
SMILES: COc1cc(N2CC=C(Oc3ccc(C4CC4)cc3)C2=O)ccc1OCCO
